The record followed here is ChEMBL document CHEMBL4627415, “Design and Structural Optimization of Dual FXR/PPARδ Activators” (J Med Chem, 2020).

Molecules are shown by their SMILES. Calls of active or inactive are those of the source. No cut-off for these calls is given here.

Holding throughout (assay type): cell-based
Assay [1] concerns the target T1, Bile acid receptor (Homo sapiens) (UniProt Q96RI1).
T1 sequence (whole entry): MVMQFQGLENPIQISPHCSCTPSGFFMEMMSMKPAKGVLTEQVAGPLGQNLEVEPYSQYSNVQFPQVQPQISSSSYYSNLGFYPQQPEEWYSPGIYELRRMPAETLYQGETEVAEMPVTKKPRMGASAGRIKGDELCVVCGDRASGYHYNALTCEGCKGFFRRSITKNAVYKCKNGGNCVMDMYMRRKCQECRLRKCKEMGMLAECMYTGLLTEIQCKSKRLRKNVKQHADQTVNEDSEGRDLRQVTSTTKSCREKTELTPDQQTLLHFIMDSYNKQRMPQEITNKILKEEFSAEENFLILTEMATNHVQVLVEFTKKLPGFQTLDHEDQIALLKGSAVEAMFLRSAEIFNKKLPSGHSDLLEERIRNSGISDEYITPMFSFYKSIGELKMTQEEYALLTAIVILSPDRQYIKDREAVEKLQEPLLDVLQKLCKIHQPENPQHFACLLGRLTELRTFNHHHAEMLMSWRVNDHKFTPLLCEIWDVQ
The assay can be described thus: Activation of FXR in human HepG2 cells assessed as increase in BSEP mRNA expression at 3 uM incubated for 8 hrs by quantitative real time PCR analysis.

For assay [2], the target named is T2, Peroxisome proliferator-activated receptor delta (Mus musculus) (UniProt P35396).
T2 sequence (whole entry): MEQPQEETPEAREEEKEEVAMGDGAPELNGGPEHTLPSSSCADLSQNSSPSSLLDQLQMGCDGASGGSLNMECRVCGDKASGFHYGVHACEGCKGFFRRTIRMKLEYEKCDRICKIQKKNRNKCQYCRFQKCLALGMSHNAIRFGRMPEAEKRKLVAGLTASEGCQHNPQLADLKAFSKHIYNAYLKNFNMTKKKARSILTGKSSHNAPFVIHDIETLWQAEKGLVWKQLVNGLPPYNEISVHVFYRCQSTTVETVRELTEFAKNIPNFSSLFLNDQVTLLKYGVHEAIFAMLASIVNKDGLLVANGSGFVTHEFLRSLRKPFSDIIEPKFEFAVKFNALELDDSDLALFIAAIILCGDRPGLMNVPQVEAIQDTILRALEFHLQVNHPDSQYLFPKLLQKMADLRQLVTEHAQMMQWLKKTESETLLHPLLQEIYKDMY
The assay can be described thus: Activation of PPARD in mouse C2C12 cells assessed as increase PCK mRNA expression at 3 uM incubated for 8 hrs by quantitative real time PCR analysis. (In general: Real-time PCR tracks product formation cycle by cycle.)

Assay [3] concerns the target T3, Peroxisome proliferator-activated receptor delta (Homo sapiens) (UniProt Q03181).
T3 sequence (whole entry): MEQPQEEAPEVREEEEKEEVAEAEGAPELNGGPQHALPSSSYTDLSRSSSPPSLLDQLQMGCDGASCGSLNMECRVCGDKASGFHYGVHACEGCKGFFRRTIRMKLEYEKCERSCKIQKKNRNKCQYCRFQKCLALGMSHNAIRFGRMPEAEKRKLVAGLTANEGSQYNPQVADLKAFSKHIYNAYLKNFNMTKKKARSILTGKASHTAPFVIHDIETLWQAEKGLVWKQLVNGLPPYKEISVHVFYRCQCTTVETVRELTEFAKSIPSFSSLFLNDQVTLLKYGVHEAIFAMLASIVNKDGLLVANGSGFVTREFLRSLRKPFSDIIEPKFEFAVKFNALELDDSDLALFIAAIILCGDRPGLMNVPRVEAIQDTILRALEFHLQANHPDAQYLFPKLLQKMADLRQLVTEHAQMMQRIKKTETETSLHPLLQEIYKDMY
The assay can be described thus: Activation of human PPAR-delta LBD expressed in HEK293T cells assessed as induction of receptor activation at 1 uM incubated for 12 to 14 hrs by luciferase reporter gene assay relative to L165,041. As to conditions: HEK-293T. Background: In a reporter assay the amount or activity of a reporter protein is the signal.

Turning to `CC(C)c1onc(-c2c(Cl)cccc2Cl)c1COc1ccc(CNc2ccc(CC(=O)O)cc2)c(Cl)c1`, the result in assay [1] and in assay [2] was Active. Further, in assay [3], the %max was 17%.
